According to patent US10301292B2, “Bicyclic compound” (Takeda Pharmaceutical Company Limited, priority 2014, dated 2019):

Experiments:
HCT116 cells = assay: Growth inhibitory activity on HCT116 cell (CellTiter-Glo); type: cell-based; settings: Homo sapiens, HCT-116, 72 h, table head: 10 μM (text b2498: 1 μM), 3 days incubation, read-out: HCT116 cell proliferation inhibitory rate (%) at 10 μM
Outline: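 HCT116 cells in RPMI with 2% FBS, 900 cells/well, treated the day after seeding and incubated 3 days at 37 °C, 5% CO2. Viability read by CellTiter-Glo luminescence. Percent inhibition calculated relative to untreated wells, with cell-free wells subtracted as background.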

[1] = tested on: human renal cancer cell line 786-O; assay: Antitumor action on human renal cancer cell line 786-O tumor bearing mouse; type: in vivo; settings: oral, 28 days, 786-O tumor bearing BALB/c nude mouse
Description: The antitumor action of the compound of the present invention on human renal cancer cell line 786-O tumor bearing mouse was evaluated by the following method.
Human renal cancer cell line 786-O (purchased from ATCC (American Type Culture Collection)) was transplanted to 6-week-old BALB/c female nude mouse (Shanghai SINO-British SIPPR/BK Lab Animal Ltd) at 3.0×10^6 cells by subcutaneous injection. After transplantation, the engrafted tumor was observed, the tumor diameter was measured on day 10 post-transplantation, and the tumor volume was calculated by the following formula. tumor volume=major axis×minor axis×minor axis×(1/2)
The mice having engrafted tumor with a volume size up to 150 mm^3 were selected and used for the experiment (8 per group). The test compound was suspended in 0.5% methylcellulose solution, and orally administered for 28 days at the dose and number of administration shown in the following Table. Finally, for the measurement of the drug effect, the tumor volume was calculated from the tumor diameter of the day before the start of the administration and the final day of the administration, and the tumor growth of the test compound administration group compared to that of the control administration group (T/C) was calculated by the following formula. T/C (%)=(tumor volume after completion of administration in test compound administration group−tumor volume before start of administration in test compound administration group)/(tumor volume after completion of administration in control administration group−tumor volume before start of administration in control administration group))×100
T/C (%) relative to human renal cancer cell line 786-O tumor bearing mouse at each dose and number of administration of the test compound (specifically, compound shown in Example 98) is shown below.

[2] = tested on: collagen I gene expression in the liver; assay: Effect on liver fibrosis caused by non-alcoholic steatohepatitis (liver collagen I gene expression); type: in vivo; settings: LDL receptor deficient mouse, choline-deficient amino acid diet; oral once per day for 3 weeks; normalized by GAPDH; P<0.05 vs. control (FIG. 1)
Excerpt: The effect of the present compound on liver fibrosis caused by non-alcoholic steatohepatitis was verified by the following method.
For efficacy evaluation of the antifibrotic action, 9-week-old, male, homo low-density lipoprotein receptor deficient mouse was used. The low-density lipoprotein receptor deficient mouse was purchased from Jackson Laboratories (Bar Harbor, Me., USA) and bred in Takeda Pharmaceutical Industry. To induce non-alcoholic steatohepatitis, a choline-deficient amino acid diet (A08111307, Research Diets, New Brunswick, N.J., USA) was fed.
Before administration of the test compound (specifically, compound shown in Example 98), a choline-deficient amino acid diet was fed for one week, and the drug administration was started. […]
After administration for 3 weeks, the mouse was sacrificed by euthanasia under isoflurane anesthesia under non-fasting and the liver was removed. […] Using RNeasy Mini Kit (Qiagen, Valencia, Calif., USA), the total RNA was purified, cDNA was prepared using High Capacity cDNA Reverse Transcription Kit (PN4368814, Applied Biosystems, Foster City, Calif., USA), and collagen I expression was quantified (collagen type I alpha 1, Part Number 4351370, Applied Biosystems) by the quantitative PCR method (TaqMan Gene Expression Master Mix, PN4369016, Applied Biosystems). […]

In the case of `CC(NC(N)=O)c1ccc2nc(-c3ccc(Oc4cccc(OCC5CC5)c4)nc3)oc2c1` (centres unmarked) [Example 98, 1-(1-(2-(6-(3-(cyclopropylmethoxy)phenoxy)pyridin-3-yl)-1,3-benzoxazol-6-yl)ethyl)urea], the inhibition at 10 µM (HCT116 cells) was 25%, the “T/C (%)” value ([1]; 0.3 mg/kg, 2 times per day) was 50.6% and the “T/C (%)” value ([1]; 1 mg/kg, 2 times per day) was 37.0%. The “T/C (%)” value ([1]; 3 mg/kg, 2 times per day) was 31.1%, the “T/C (%)” value ([1]; 10 mg/kg, 2 times per day) was 4.5% and the “T/C (%)” value ([1]; 20 mg/kg, 1 time per day) was 19.0%. The “T/C (%)” value ([1]; 30 mg/kg, 2 times per day) was 0.5% and the “expression level of collagen I gene in the liver of a non-alcoholic steatohepatitis model” value [2] was “significantly suppressed”.
